From patent US7420056B2, “Substituted bicyclic imidazo-3-ylamine compounds” (Gruenenthal GmbH, priority 2004, dated 2008)
pIC50: −log10 of the molar value. Counter-ions that a name gives are not always drawn.

What follows are compounds tested against mGluR5 receptor (Sus scrofa, UniProt I3LUI7) (assay: Affinity for the mGluR5 receptor: inhibition of 3[H]-MPEP binding in pig brain homogenate). Settings: 10 μM compound, 5 nM 3[H]-MPEP, read-out: mGluR5 receptor inhibition of ^3[H]-MPEP binding [10 μM] in % at a concentration of the example compounds of 10 μM.
mGluR5 receptor, sequence (I3LUI7 19-1212): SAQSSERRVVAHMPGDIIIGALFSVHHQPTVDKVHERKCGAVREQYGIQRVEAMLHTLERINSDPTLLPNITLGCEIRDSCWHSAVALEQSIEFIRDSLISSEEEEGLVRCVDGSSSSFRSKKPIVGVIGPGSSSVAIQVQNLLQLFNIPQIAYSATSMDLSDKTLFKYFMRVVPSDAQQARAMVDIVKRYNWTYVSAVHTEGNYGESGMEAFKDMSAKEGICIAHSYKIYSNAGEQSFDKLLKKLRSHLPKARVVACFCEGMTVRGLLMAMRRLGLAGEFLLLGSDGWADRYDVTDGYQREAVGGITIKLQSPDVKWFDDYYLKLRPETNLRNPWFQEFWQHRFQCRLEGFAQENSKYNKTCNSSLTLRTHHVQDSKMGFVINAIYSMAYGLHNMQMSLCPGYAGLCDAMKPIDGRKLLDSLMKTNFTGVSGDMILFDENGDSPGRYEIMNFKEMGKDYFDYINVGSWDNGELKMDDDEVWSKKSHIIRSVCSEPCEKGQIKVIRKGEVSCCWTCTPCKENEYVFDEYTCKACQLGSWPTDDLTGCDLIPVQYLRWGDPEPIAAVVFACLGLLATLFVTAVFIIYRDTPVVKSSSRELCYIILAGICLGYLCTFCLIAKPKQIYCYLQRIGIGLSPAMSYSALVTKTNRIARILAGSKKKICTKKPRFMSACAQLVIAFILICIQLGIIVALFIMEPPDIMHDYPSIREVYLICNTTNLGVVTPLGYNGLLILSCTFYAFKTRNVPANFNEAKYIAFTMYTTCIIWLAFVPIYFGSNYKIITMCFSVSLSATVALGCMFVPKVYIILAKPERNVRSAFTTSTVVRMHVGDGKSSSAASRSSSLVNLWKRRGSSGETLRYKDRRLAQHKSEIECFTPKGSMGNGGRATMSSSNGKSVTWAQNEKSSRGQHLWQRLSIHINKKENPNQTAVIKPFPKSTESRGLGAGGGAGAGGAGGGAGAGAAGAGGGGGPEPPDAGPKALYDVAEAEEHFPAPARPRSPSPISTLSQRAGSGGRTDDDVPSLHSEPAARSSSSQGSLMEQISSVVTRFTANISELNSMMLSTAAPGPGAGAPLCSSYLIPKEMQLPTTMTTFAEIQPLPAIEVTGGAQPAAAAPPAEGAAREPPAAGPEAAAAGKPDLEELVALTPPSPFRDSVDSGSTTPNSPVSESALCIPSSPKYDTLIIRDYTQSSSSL
Procedure: 1. Method for Determining Affinity for the mGluR5 Receptor
Pig brain homogenate is produced by homogenisation (Polytron Pt 3000, Kinematica AG, 10,000 revolutions per minute for 90 seconds) of pig brain hemispheres without medulla, cerebellum and pons in a buffer of pH 8.0 (30 mM Hepes, Sigma, order number H3375+1 tablet Complete Roche Diagnostics, order number 1836145 made up to 100 ml) in a ratio of 1:20 (brain weight/volume) and differential centrifugation at 900×g and 40,000×g. 450 μg of protein from brain homogenate is incubated in each case in 250 μl incubation batches in 96-well microtitre plates with 5 nM 3[H]-MPEP (Tocris, order number R1212) (MPEP=2-methyl-6-[…]) and the compounds to be investigated (10 μM in the test) in the buffer (as above) at room temperature for 60 minutes.
The batches are then filtered with the assistance of a Brandel Cell Harvester (Brandel, Grade Robotic 9600) on Unifilter plates with glass filter mats (Perkin Elmer, order number 6005177) and then washed 3 times with buffer (as above) using 250 μl per sample. The filter plates are then dried for 60 minutes at 55° C. Then 30 μl of Ultima Gold™ scintillating material (Packard BioScience, order number 6013159) is added per well and after 3 hours the samples are measured using the β counter (Microbeta, Perkin Elmer). Nonspecific binding is determined by the addition of 10 μM MPEP (Tocris, order number 1212).
For `COc1cccc(CNc2c(-c3ccc(C#Cc4ccccc4)s3)nc3c(OCc4ccccc4)cccn23)c1` [Example 24, [8-benzyloxy-2-(5-phenylethynyl-thiophen-2-yl)-imidazo[1,2-a]pyridin-3-yl]-(3-methoxy-benzyl)-amine], the inhibition at 10 µM was 94%.
Compound `Cc1c(Br)ccc2nc(-c3cc(C#Cc4ccccc4)cs3)c(NCc3ccc(Cl)cc3)n12` [Example 231, 6-bromo-N-(4-chlorobenzyl)-5-methyl-2-(4-(phenylethynyl)thiophen-2-yl)imidazo[1,2-a]pyridin-3-amine] has an inhibition at 10 µM of 62%.
`Cc1cccc(C#Cc2cccc(-c3nc4ccc(Cl)cn4c3NC3CCCC3)c2)n1` [Example 319, 6-chloro-N-cyclopentyl-2-(3-((6-methylpyridin-2-yl)ethynyl)phenyl)imidazo[1,2-a]pyridin-3-amine] showed an inhibition at 10 µM of 81%.
Work on `CC(C)(C)Nc1c(-c2ccc(C#Cc3ccccn3)o2)nc2ncccn12` [Example 258, N-tert-butyl-2-(5-(pyridin-2-ylethynyl)furan-2-yl)imidazo[1,2-a]pyrimidin-3-amine] yielded an inhibition at 10 µM of 86%.
For `C(#Cc1ccccn1)c1cccc(-c2nc3cnccn3c2NC2CCCCC2)c1` [Example 238, N-cyclohexyl-2-(3-(pyridin-2-ylethynyl)phenyl)imidazo[1,2-a]pyrazin-3-amine], the inhibition at 10 µM was 92%.
With `Fc1ccc(CNc2c(-c3ccc(C#Cc4ccccc4)o3)nc3ccc(Cl)cn23)cc1` [Example 221, 6-chloro-N-(4-fluorobenzyl)-2-(5-(phenylethynyl)furan-2-yl)imidazo[1,2-a]pyridin-3-amine] the inhibition at 10 µM was 40%.
With `COc1cccc(CCNc2c(-c3ccc(C#Cc4ccccc4)o3)nc3nc(C)cc(C)n23)c1` [Example 197, N-(3-methoxyphenethyl)-5,7-dimethyl-2-(5-(phenylethynyl)furan-2-yl)imidazo[1,2-a]pyrimidin-3-amine] the inhibition at 10 µM was 31%.

Same assay, conditions: 3[H]-MPEP binding
Work on `CN(c1c(-c2ccc(C#Cc3ccccc3)s2)nc2cnccn12)C(C)(C)C` [Example 89, N-tert-butyl-N-methyl-2-(5-(phenylethynyl)thiophen-2-yl)imidazo[1,2-a]pyrazin-3-amine] yielded a pIC50 of 7.35.
`CCCCNc1c(-c2ccc(C#Cc3ccccc3)s2)nc2cnccn12` [Example 70, butyl-[2-(5-phenylethynyl-thiophen-2-yl)-imidazo[1,2-a]pyrazin-3-yl]-amine] was tested, and the pIC50 was 5.97.
`CC(C)(C)Nc1c(-c2ccc(C#Cc3ccccc3F)s2)nc2cnccn12` [Example 105, N-tert-butyl-2-(5-((2-fluorophenyl)ethynyl)thiophen-2-yl)imidazo[1,2-a]pyrazin-3-amine hydrochloride] gave a pIC50 of 6.82.
`CC(C)(C)Nc1c(-c2ccc(C#Cc3ccccn3)s2)nc2cnccn12` [Example 77, tert-butyl-[2-(5-pyridin-2-ylethynyl-thiophen-2-yl)-imidazo[1,2-a]pyrazin-3-yl]-amine] gave a pIC50 of 8.24.
For `COC(=O)CN(CC(=O)OC)c1c(-c2ccc(C#Cc3ccccc3)s2)nc2cnccn12` [Example 73, {(methoxycarbonylmethyl)-[2-(5-phenylethynyl-thiophen-2-yl)-imidazo[1,2-a]pyrazin-3-yl]-amino}-acetic acid methyl ester], the pIC50 was 5.66.
In the case of `Cc1ccc(C#Cc2ccc(-c3nc4ccccn4c3NC(C)(C)C)s2)nc1` [Example 339, tert-butyl-{2-[5-(5-methyl-pyridin-2-ylethynyl)-thiophen-2-yl]-imidazo[1,2-a]pyridin-3-yl}-amine hydrochloride], the pIC50 was 6.49.
For `CC(C)(C)Nc1c(-c2ccc(C#Cc3ccccc3)s2)nc2cnccn12` [Example 18, tert-butyl-[2-(5-phenylethynyl-thiophen-2-yl)-imidazo[1,2-a]pyrazin-3-yl]-amine], the pIC50 was 7.19.
With `C(#Cc1ccc(-c2nc3cnccn3c2NCc2ccccc2)s1)c1ccccc1` [Example 74, benzyl-[2-(5-phenylethynyl-thiophen-2-yl)-imidazo[1,2-a]pyrazin-3-yl]-amine] the pIC50 was 5.96.
